# In paper PMC10820527, “Synthesis, Characterization, and Investigation of Anti-Inflammatory and Cytotoxic Activities of Novel Thiourea Derivatives of Naproxen” (Pharmaceutics, 2023):
# Assays:
# Format in all cases: cell-based, human
# active caspase-3 = assay: Assessment of apoptosis: cells containing active caspase-3 (flow cytometry); details: HeLa cells, 24 h, IC50 concentration, p < 0.05
# Protocol: (§1) The aim of this study was to determine the expression of proteins that play a key role in apoptosis. The level of expression of the proapoptotic protein Bax, antiapoptotic protein Bcl-2, and the percentage of cells containing active caspase-3 was evaluated. […] Additionally, HeLa cells were fixed, permeabilized, and rinsed with ice-cold PBS (Fixation and Permeabilization Kit, eBioscience, San Diego, CA, USA). The cells were treated for 15 min at room temperature with a 1:1000 Bcl-2 fluorescein isothiocyanate (FITC) primary antibody (mhbcl01, Life Technologies, Carlsbad, CA, USA) to stain them. For further labeling, permeabilized HeLa cells were incubated with primary antibodies for active-Bax (N20, sc-493; Santa Cruz Biotech Inc., Dallas, TX, USA) and cleaved caspase-3 (#9661, Cell signaling Technology, Danvers, MA, USA) at a ratio of 1:1000 for 30 min. […] With the FC500 (Beckman Coulter), fluorescence of at least 15,000 events/samples had been measured. Negative control antibodies that matched the isotype were used to normalize the fluorescence intensity. The degree of expression of these proteins was indicated by the mean fluorescence intensities for Bax and Bcl-2 (MFIs), which were computed as the ratio of raw mean channel fluorescence to isotype control levels, respectively. […]
# [1] = Annexin V/PI flow cytometry (type of cell death); details: human; HeLa cells, 24 h, IC50 concentration; representative plot; read-out: viable cells (Q4, lower left quadrant)
# Protocol: (§2) The type of cell death induced by compounds 3 and 8 was determined by the annexin V–fluorescein isothiocyanate (FITC)/propidium iodide (PI) Apoptosis Kit (BD Biosciences, Franklin Lakes, NJ, USA). […] Furthermore, tested HeLa cells were trypsinized, washed in PBS, centrifuged, and resuspended in 100 μL of ice-cold binding buffer. The tested cells were then stained with both 10 μL of Annexin V-FITC and 20 μL of […], incubated for 15 min in the dark at room temperature, and 400 μL of binding buffer was added to each tube. The obtained samples were measured with a flow cytometer Cytomics FC500 (Beckman Coulter, Brea, CA, USA). In addition, the obtained data were analyzed using FlowJo V10 Software. Measurements were presented as the representative density plots of Annexin V-FITC and PI staining and the average values of three independent experiments.
# HeLa cells = assay: Annexin V/PI flow cytometry (type of cell death)
# Protocol: as §2
# proapoptotic protein Bax = assay: Assessment of apoptosis: active Bax expression (flow cytometry); details: HeLa cells, 24 h, IC50 concentration, p > 0.05
# Protocol: as §1
# [2] = system: antiapoptotic protein Bcl-2; assay: Assessment of apoptosis: Bcl-2 expression (flow cytometry); details: HeLa cells, 24 h, IC50 concentration, p > 0.05
# Protocol: as §1
compound,measurement,setting,value
"COc1ccc2cc([C@H](C)C(=O)NC(=S)Nc3ccccc3)ccc2c1 [Compound 8, (S)-2-(6-methoxynaphthalen-2-yl)-N-(phenylcarbamothioyl)propanamide]",Percentage of cells containing active caspase-3 (in words),active caspase-3,increased compared to the untreated cells
same,viability at 24 h,[1],49.2%
same,Type of HeLa cell death induced (in words),"HeLa cells; 24 h of treatment, p < 0.05",induced apoptosis
same,"late apoptotic cells (Q2, upper right quadrant)","HeLa cells; HeLa cells, 24 h, IC50 concentration, Annexin V-FITC/PI",1–3%
same,Amount of proapoptotic Bax (in words),proapoptotic protein Bax,insignificantly changed
same,Amount of the antiapoptotic protein Bcl-2 (in words),[2],insignificantly changed
